According to patent US20140050720A1, “ULTRALONG COMPLEMENTARITY DETERMINING REGIONS AND USES THEREOF” (THE SCRIPPS RESEARCH INSTITUTE, priority 2012, published 2014):

How the values were obtained:
[1] = tested on: Mouse NFS-60 cells; assay: Proliferation assay on mouse NFS-60 cells (AlamarBlue); type: cell-based; settings: 72 hours
Procedure: Mouse NFS-60 cells were obtained from American Type Culture Collection (ATCC), VA, and cultured in RPMI-1640 medium supplemented with 10% fetal bovine serum (FBS), 0.05 mM 2-mercapoethanol and 62 ng/ml human macrophage colony stimulating factor (M-CSF). For proliferation assay, mouse NFS-60 cells were washed three times with RPMI-1640 medium and resuspended in RPMI-1640 medium with 10% FBS and 0.05 mM 2-mercapoethanol at a density of 1.5×10^5 cells/ml. In 96-well plates, 100 μl of cell suspension was added into each well, followed by the addition of varied concentrations of bGCSF, BLV1H12 antibody, and the immunoglobulin constructs described herein, Equal volume of PBS buffer was added into the control wells. The plates were incubated at 37° C. in a 5% CO2 incubator for 72 hours. Cells were then treated with AlamarBlue (Invitrogen) ( 1/10 volume of cell suspension) for 4 hours at 37° C. Fluorescence at 595 nm for each well was read to indicate the cell viability.

[2] = tested on: Human mPB CD34+ cells; assay: Proliferative activity on human granulocyte progenitors (flow cytometry); type: cell-based; settings: 7 days
Procedure: Human mPB CD34^+ cells were purchased from AllCells. Cells were resuspended in HSC expansion medium (StemSpan SFEM, StemCell Technologies) supplemented with 1× antibiotics and the following recombinant human cytokines thrombopoietin, IL6, Flt3 ligand, and stem cell factor (100 ng/mL, R & D Systems), then plated in 96-well plates (1000 cells per well), with varied concentrations of BLV1H12-bGCSF fusion antibodies. Cells were cultured for 7 days at 37° C. in a 5% CO2 incubator, then analyzed by flow cytometry to measure cell number and expression of CD45ra and CD41. Cells were stained in staining medium (HBSS supplemented with 2% FBS and 2 mM EDTA) at 4° C. for 1 h with PECy7 anti-CD45ra and eFluor 450 anti-CD41 (eBiosciences), then washed with staining medium and analyzed. Multicolor analysis for cell phenotyping was performed on a LSR II flow cytometer (Becton Dickinson). FIGS. 10A-10E and Tables 9-10 show the human granulocyte progenitor cell proliferative activities of the Ab-GCSF fusion antibodies.

[3] = Pharmacokinetics of BLV1H12-bGCSF fusion antibodies in mice; type: in vivo; settings: BALB/c mice, 70 μg injected
Procedure: For PK study in mice, 70 μg of the immunoglobulin constructs described herein were injected into 3 BALB/c mice per group. Blood samples were drawn from time 0 to 14 days with extended intervals and analyzed by ELISA using anti-human IgG Fc antibody with horseradish peroxidase (HRP) labeled (KPL) and anti-6×His antibody with HRP labeled (Clontech). Data were normalized by taking maximal concentration at the first time point (30 min).

[4] = tested on: mice neutrophils; assay: Neutrophils counts in mice; type: in vivo; settings: mice blood, 10th day post-injection, neutrophils among white blood cells
Procedure: On the 10th day after injection of BLV1H12-bGCSF fusion antibodies into mice for PK study, blood samples were drawn from the mice and stained using the Diff Quick Staining Kit (Thermo Fisher Scientific, IL). Neutrophils and white blood cells were counted under microscope and the percentages of neutrophils were analyzed. FIGS. 12A-12B and Table 12 show proliferative activities of BLV1H12-bGCSF fusion antibodies on mice neutrophils that are blood stained and counted at the 10th day post-injection.

Ab-bGCSF L0: bovine G-CSF replacing the knob domain of BLV1H12 CDR3H, no linker (n=0); DNA SEQ ID NO: 4
F.I. (AlamarBlue fluorescence at 595 nm, cell viability) ([1]; 0.09876 ng/mL): 1328 | F.I. (AlamarBlue fluorescence at 595 nm, cell viability) ([1]; 0.29627 ng/mL): 1436 | F.I. (AlamarBlue fluorescence at 595 nm, cell viability) ([1]; 0.88881 ng/mL): 1734.765 | F.I. (AlamarBlue fluorescence at 595 nm, cell viability) ([1]; 2.66642 ng/mL): 2189 | F.I. (AlamarBlue fluorescence at 595 nm, cell viability) ([1]; 7.99927 ng/mL): 2680 | F.I. (AlamarBlue fluorescence at 595 nm, cell viability) ([1]; 23.9978 ng/mL): 2899 | F.I. (AlamarBlue fluorescence at 595 nm, cell viability) ([1]; 71.9934 ng/mL): 2921 | F.I. (AlamarBlue fluorescence at 595 nm, cell viability) ([1]; 215.9802 ng/mL): 3416 | Number of CD45RA− CD41− ([2]; 0.14225 ng/mL): 2601 | Number of CD45RA− CD41− ([2]; 0.42676 ng/mL): 2253 | Number of CD45RA− CD41− ([2]; 3.84088 ng/mL): 4399 | Number of CD45RA− CD41− ([2]; 11.52263 ng/mL): 7262 | Number of CD45RA− CD41− ([2]; 34.5679 ng/mL): 9902 | Number of CD45RA− CD41− ([2]; 103.7037 ng/mL): 11500 | Number of CD45RA− CD41− ([2]; 311.11111 ng/mL): 11500 | Number of CD45RA− CD41− ([2]; 933.33333 ng/mL): 11900 | Number of CD45RA− CD41− ([2]; 2800 ng/mL): 12100 | Percentage (normalized to maximal concentration at the first time point, 30 min) ([3]; day 0.021): 100.00% | Percentage (normalized to maximal concentration at the first time point, 30 min) ([3]; day 0.042): 91.12% | Percentage (normalized to maximal concentration at the first time point, 30 min) ([3]; day 0.083): 91.24% | Percentage (normalized to maximal concentration at the first time point, 30 min) ([3]; day 0.125): 91.56% | Percentage (normalized to maximal concentration at the first time point, 30 min) ([3]; day 0.250): 61.22% | Percentage (normalized to maximal concentration at the first time point, 30 min) ([3]; day 1.000): 44.22% | Percentage (normalized to maximal concentration at the first time point, 30 min) ([3]; day 2.000): 36.36% | Percentage (normalized to maximal concentration at the first time point, 30 min) ([3]; day 3.000): 27.38% | Percentage (normalized to maximal concentration at the first time point, 30 min) ([3]; day 8.000): 11.53% | Percentage (normalized to maximal concentration at the first time point, 30 min) ([3]; day 10.000): 12.44% | Percentage (normalized to maximal concentration at the first time point, 30 min) ([3]; day 14.000): 14.35% | Percentage of Neutrophil [4]: 25.05

Ab-bGCSF L1: bovine G-CSF replacing the knob domain of BLV1H12 CDR3H with GGGGS linkers on both ends; DNA SEQ ID NO: 5
F.I. (AlamarBlue fluorescence at 595 nm, cell viability) ([1]; 0.09808 ng/mL): 1412.387 | F.I. (AlamarBlue fluorescence at 595 nm, cell viability) ([1]; 0.29424 ng/mL): 1654.776 | F.I. (AlamarBlue fluorescence at 595 nm, cell viability) ([1]; 0.88272 ng/mL): 2082.718 | F.I. (AlamarBlue fluorescence at 595 nm, cell viability) ([1]; 2.64816 ng/mL): 2550.674 | F.I. (AlamarBlue fluorescence at 595 nm, cell viability) ([1]; 7.94449 ng/mL): 2997.807 | F.I. (AlamarBlue fluorescence at 595 nm, cell viability) ([1]; 23.83346 ng/mL): 3277.812 | F.I. (AlamarBlue fluorescence at 595 nm, cell viability) ([1]; 71.50039 ng/mL): 3308.383 | F.I. (AlamarBlue fluorescence at 595 nm, cell viability) ([1]; 214.50117 ng/mL): 3868.075 | Number of CD45RA− CD41− ([2]; 0.30483 ng/mL): 4070 | Number of CD45RA− CD41− ([2]; 0.91449 ng/mL): 3601 | Number of CD45RA− CD41− ([2]; 2.74348 ng/mL): 4303 | Number of CD45RA− CD41− ([2]; 8.23045 ng/mL): 6404 | Number of CD45RA− CD41− ([2]; 24.69136 ng/mL): 9122 | Number of CD45RA− CD41− ([2]; 74.07407 ng/mL): 11200 | Number of CD45RA− CD41− ([2]; 222.22222 ng/mL): 11000 | Number of CD45RA− CD41− ([2]; 666.66667 ng/mL): 11400 | Number of CD45RA− CD41− ([2]; 2000 ng/mL): 11400 | Number of CD45RA− CD41− ([2]; 6000 ng/mL): 13200 | Percentage (normalized to maximal concentration at the first time point, 30 min) ([3]; day 0.021): 100.00% | Percentage (normalized to maximal concentration at the first time point, 30 min) ([3]; day 0.042): 102.12% | Percentage (normalized to maximal concentration at the first time point, 30 min) ([3]; day 0.083): 104.03% | Percentage (normalized to maximal concentration at the first time point, 30 min) ([3]; day 0.125): 101.71% | Percentage (normalized to maximal concentration at the first time point, 30 min) ([3]; day 0.250): 93.90% | Percentage (normalized to maximal concentration at the first time point, 30 min) ([3]; day 1.000): 59.26% | Percentage (normalized to maximal concentration at the first time point, 30 min) ([3]; day 2.000): 56.66% | Percentage (normalized to maximal concentration at the first time point, 30 min) ([3]; day 3.000): 39.09% | Percentage (normalized to maximal concentration at the first time point, 30 min) ([3]; day 8.000): 22.21% | Percentage (normalized to maximal concentration at the first time point, 30 min) ([3]; day 10.000): 21.15% | Percentage (normalized to maximal concentration at the first time point, 30 min) ([3]; day 14.000): 21.41% | Percentage of Neutrophil [4]: 25.32
